According to US20060281806A1, “Treatment and inhibition of disease conditions using flexible heteroarotinoids” (priority 2005, published 2006):
Entries after “also recorded” stand apart in the source; their conditions may differ.

Columns and labels:
[1] = system: human Caki renal cancer xenografts; experiment: Caki renal cancer xenograft model; format: in vivo, mouse
Procedure: (§1) FIG. 12. Various Xenograft tumors stained with CD34 antibodies (brown) to identify endothelium. The B16 mouse melanoma cell line was established as a syngeneic tumor in an immunocompetent mouse model and the human Caki renal cancer and A2780 ovarian xenograft tumors in immunocompromised mice. The treated mice were gavaged with 60 mg/kg/day SHetA2 and the untreated were gavaged with solvent only. The tumors were excised and sections were stained with the anti-CD34 antibody to detect endothelial cells (brown stain).
FIG. 20. Mice harboring Caki renal cancer xenografts were treated with 60 mg/kg/day SHetA2 or PEG400 vehicle for 15 days. After another 15 days of growth, the tumors were removed, fixed, embedded and sections. Sections were stained with PAS to identify glycoproteins and lysosomes. The untreated tumor is on the left and the treated tumor is on the right.
(§2) Survival was the primary endpoint of those studies. […] Tumor growth was the primary endpoint of the renal cancer study.

[2] = system: EAhy.926 endothelial cells; experiment: Growth/viability of endothelial cells versus ovarian cancer cell lines; format: cell-based; details: SHetA2 for 24 hours
Procedure: The graph on the left provides quantification of the endothelial branches for each treatment dose.
The increased thickness of the vessels at 1 μM and the increasing proportions of solitary clumps of cells at 5 and 10 μM indicate that SHetA2 is inhibiting endothelial cell migration. To determine if this anti-angiogenic activity was due to growth inhibition or cytotoxicity. The viability of the endothelial cells treated with SHetA2 for 24 hours was evaluated. […] This confirms the therapeutic ratio observed in previous studies.

OVCAR-3 xenograft tumors = experiment: OVCAR-3 xenograft tumor animal model, tumor growth; format: in vivo, mouse; details: 10 mg/kg/day by gavage, 5 days/week, 4 weeks; t-test on day 29
Procedure: Groups of 5 mice bearing OVCAR-3 xenografted tumors were gavaged daily with the indicated drugs in sesame oil (▪ closed square) or with sesame oil alone (∘ open circle). Tumor volumes were measured in 3 dimensions with calipers weekly. Each data point represents the average and standard error of the tumor volumes on the indicated treatment day relative to the tumor volume on day zero. Nu/nu mice were injected subcutaneously with one million OVCAR-3 cells and arbitrarily divided into five groups of six mice each. After three weeks of tumor growth, the animals were gavaged with sesame oil, 10 mg/kg/day 4-HPR, or the indicated Het five times per week for four weeks and the tumors were measured once per week. The tumor sizes were averaged and divided by the average size for each group on the day that treatment was initiated (day 0).
The OVCAR-3 cultures were maintained in RPMI media supplemented with 10% fetal bovine serum. All animal experimentation described in this manuscript was conducted in accord with accepted standards of humane animal care. Twenty-five female NU/NU CD-1 female mice (Charles Rivers Laboratories) were housed in a laminar flow room under sterile conditions at 83-85° F. The mice were quarantined for one week prior to the beginning of the study and were allowed access to autoclaved food (Purina 5001 mouse/rat sterilizable diet, St. Louis, Mo.) and water ad libitum. OVCAR-3 cells in log phase growth were harvested by trypsinization, resuspended in RPMI culture medium, and centrifuged at 3,000 rpm for 10 min. The pellets were resuspended in RPMI culture medium at a concentration of 7×10^6 cells/ml before implantation into mice. Animals were injected with 3.5×10^6 cells into the right scapular region with a 24-gauge needle/1 cc tuberculin syringe. Twenty-four hours after tumor implantation, animals were randomized into 5 groups of 5 animals each.
The Hets SHet50, SHetA2 and SHetA4 were synthesized and their receptor specificity determined as previously described (17,19). The 4-HPR compound was a gift from R.W. Johnson Pharmaceutical Research Institute, Raritan, N.J. All retinoids were dissolved in super refined sesame oil (Croda, Inc., Parsippany, N.J.) and stored at −80° C. Since the retinoids are light sensitive, all manipulations involving retinoids were performed under subdued lighting. […] Tumors were measured with calipers weekly, and tumor volumes were calculated using the formula: volume=length×width×height. Tumor growth was determined by the dividing the volume of the tumor at each weekly measurement by the volume on the first day of treatment. Animal weights and clinical signs of overall health status and cutaneous toxicities were recorded weekly.

[3] = system: A2780 ovarian xenograft tumors; experiment: A2780 ovarian xenograft tumor model; format: in vivo, mouse; details: oral 60 mg/kg/day
Procedure: as §1, §2

[4] = system: dorsal skin of female Skh hairless mice; experiment: Topical irritancy; format: in vivo; details: mouse, in vivo
Procedure: Female Skh hairless mice, 6-8 weeks old, were treated topically on the dorsal skin for 4 days over a 2-log concentration dose range with various compounds. Retinoic acid receptor-Hets were evaluated in A, while retinoic acid receptor-independent Flex-Hets were evaluated in B. Daily flaking and abrasion scores were combined to calculate a single cutaneous toxicity score for each mouse. Each treatment group consisted of 4 mice, and group averages were used to plot cutaneous toxicity against doses of the compounds.
Topical irritancy was evaluated according to published procedures (29). Briefly, female Skh hairless mice, 6-8 weeks old, were treated topically on the dorsal skin for 4 days over a 2-log concentration dose range with various compounds. Daily flaking and abrasion scores were combined to calculate a single cutaneous toxicity score for each mouse. Each treatment group consists of 4 mice, and group averages are used to plot cutaneous toxicity against dose of the retinoid compound.

Raldh2 −/− embryos = experiment: Rescue of Raldh2 −/− embryos and teratogenesis; format: in vivo, mouse; details: for No. of −/− rescued / No. of −/− unrescued / Teratogenesis (no. of embryos): E10.25 embryos
Procedure: Dosages varied from 0.025 to 25 mg/kg.

[5] = dose 2.5 mg/kg oral to pregnant mice
[6] = dose 10 mg/kg oral to pregnant mice
[7] = dose 25 mg/kg oral to pregnant mice

CC1(C)CC(C)(C)c2cc(NC(=S)Nc3ccc([N+](=O)[O-])cc3)ccc2S1 [SHetA2]
tumor growth ([1]; renal cancer model, oral 60 mg/kg/day): decreased tumor growth | PAS stain: general glycoprotein expression and lysosomal staining ([1]; renal xenograft tumors, 60 mg/kg/day for 15 days, versus untreated tumors): increase in general glycoprotein expression and lysosomal staining | development of blood vessels inside tumors (anti-CD34 staining) ([1]; renal, oral 60 mg/kg/day): inhibited the development of blood vessels | growth inhibition of endothelial cells compared with A2780 and OVCAR-3 [2]: much less growth inhibited | growth of xenograft tumors versus sesame oil control (OVCAR-3 xenograft tumors): significantly inhibited the growth; also recorded: significantly less | survival ([3]; ovarian cancer model): improved survival | development of blood vessels inside tumors (anti-CD34 staining) ([3]; ovarian): inhibited the development of blood vessels | topical irritancy (cutaneous toxicity score) [4]: did not induce topical irritancy | rescue of Raldh2 −/− embryos (phenotype) (Raldh2 −/− embryos; 2.5 mg/kg to pregnant mothers): no rescue | rescue of Raldh2 −/− embryos (phenotype) (Raldh2 −/− embryos; 10 or 25 mg/kg to pregnant mothers): no rescue | teratogenesis in litters (Raldh2 −/− embryos; any dosage (2.5, 10, 25 mg/kg)): no teratogenesis was observed | No. of −/− rescued (Raldh2 −/− embryos; [5]): 0 | No. of −/− unrescued (Raldh2 −/− embryos; [5]): 1 | Teratogenesis (no. of embryos) (Raldh2 −/− embryos; [5]): 0 | No. of −/− rescued (Raldh2 −/− embryos; [6]): 0 | No. of −/− unrescued (Raldh2 −/− embryos; [6]): 5 | Teratogenesis (no. of embryos) (Raldh2 −/− embryos; [6]): 0 | No. of −/− rescued (Raldh2 −/− embryos; [7]): 0 | No. of −/− unrescued (Raldh2 −/− embryos; [7]): 1 | Teratogenesis (no. of embryos) (Raldh2 −/− embryos; [7]): 0
